# pIC50: −log10 of the molar value.
# Assays:
# [1] = molecular target: T1, Hepatocyte nuclear factor 4-alpha (Homo sapiens) (UniProt P41235); assay: Selectivity interaction (Reporter gene assay) EUB0002358a HNF4A; parameters: recommended concentration 10 uM
# T1 sequence (whole entry): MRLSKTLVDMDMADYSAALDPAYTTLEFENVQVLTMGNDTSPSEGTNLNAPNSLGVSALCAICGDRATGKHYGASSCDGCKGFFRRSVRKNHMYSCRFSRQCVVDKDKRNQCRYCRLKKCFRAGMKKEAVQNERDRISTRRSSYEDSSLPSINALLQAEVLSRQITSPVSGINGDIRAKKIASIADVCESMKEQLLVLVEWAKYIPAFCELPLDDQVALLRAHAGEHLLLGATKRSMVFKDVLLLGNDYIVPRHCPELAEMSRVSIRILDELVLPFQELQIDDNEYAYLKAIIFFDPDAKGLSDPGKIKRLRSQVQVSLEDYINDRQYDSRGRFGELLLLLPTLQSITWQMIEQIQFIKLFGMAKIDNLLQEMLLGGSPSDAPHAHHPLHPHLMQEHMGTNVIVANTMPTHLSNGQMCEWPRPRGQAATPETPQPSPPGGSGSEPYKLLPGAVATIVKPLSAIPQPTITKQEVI
# [2] = molecular target: Nuclear receptor subfamily 2 group E member 1 (Homo sapiens) (UniProt Q9Y466); assay: Selectivity interaction (Reporter gene assay) EUB0002358a NR2E1; parameters: recommended concentration 10 uM
# [3] = molecular target: Nuclear receptor subfamily 4immunitygroup A member 1 (Homo sapiens) (UniProt P22736); assay: Selectivity interaction (Reporter gene assay) EUB0002358a NR4A1; parameters: recommended concentration 10 uM
# [4] = molecular target: T2, Retinoic acid receptor RXR-alpha (Homo sapiens) (UniProt P19793); assay: Selectivity interaction (Reporter gene assay) EUB0002358a RXRA; parameters: recommended concentration 10 uM; conditions: reference bexarotene 1 uM, Selectivity number of off-targets 0.0, Selectivity number of targets 1.0, Source Knowledge inhouse
# T2 sequence (whole entry): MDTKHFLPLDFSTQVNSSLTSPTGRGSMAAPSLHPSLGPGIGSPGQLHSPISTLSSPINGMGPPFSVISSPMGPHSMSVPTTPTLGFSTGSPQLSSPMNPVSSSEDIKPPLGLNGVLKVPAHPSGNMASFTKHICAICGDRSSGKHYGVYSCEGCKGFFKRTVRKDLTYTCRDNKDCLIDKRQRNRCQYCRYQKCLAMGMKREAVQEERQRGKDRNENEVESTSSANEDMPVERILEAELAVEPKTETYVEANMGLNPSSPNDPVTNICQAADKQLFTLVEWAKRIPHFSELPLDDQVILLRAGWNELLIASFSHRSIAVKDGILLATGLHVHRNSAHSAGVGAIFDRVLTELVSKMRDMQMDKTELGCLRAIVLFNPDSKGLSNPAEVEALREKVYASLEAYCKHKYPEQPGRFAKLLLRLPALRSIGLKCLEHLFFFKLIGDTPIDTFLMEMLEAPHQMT
# [5] = molecular target: T3, Nuclear receptor subfamily 2 group C member 1 (Homo sapiens) (UniProt P13056); assay: Selectivity interaction (Reporter gene assay) EUB0002358a NR2C1; parameters: recommended concentration 10 uM
# T3 sequence (whole entry): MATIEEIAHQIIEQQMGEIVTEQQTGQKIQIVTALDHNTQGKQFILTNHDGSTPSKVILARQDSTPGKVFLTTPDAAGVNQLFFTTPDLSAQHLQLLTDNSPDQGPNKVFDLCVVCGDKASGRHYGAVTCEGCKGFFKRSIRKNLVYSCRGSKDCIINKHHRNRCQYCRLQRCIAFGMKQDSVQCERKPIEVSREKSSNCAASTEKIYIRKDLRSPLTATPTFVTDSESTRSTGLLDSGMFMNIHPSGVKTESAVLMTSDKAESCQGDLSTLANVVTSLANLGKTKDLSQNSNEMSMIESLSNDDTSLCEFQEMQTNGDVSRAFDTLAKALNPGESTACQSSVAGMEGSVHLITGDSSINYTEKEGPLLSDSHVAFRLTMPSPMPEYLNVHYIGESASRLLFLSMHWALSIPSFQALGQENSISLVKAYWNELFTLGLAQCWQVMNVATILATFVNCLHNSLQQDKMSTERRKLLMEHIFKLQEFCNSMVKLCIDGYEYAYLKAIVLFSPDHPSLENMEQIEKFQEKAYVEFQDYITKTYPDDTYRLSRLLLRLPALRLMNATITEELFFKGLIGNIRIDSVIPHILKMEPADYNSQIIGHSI
# [6] = molecular target: T4, Alpha trans-inducing protein (Human alphaherpesvirus 1) (UniProt A0A5J6DW59); assay: Selectivity interaction (Reporter gene assay) EUB0002358a UL48; parameters: recommended concentration 10 uM
# [7] = molecular target: Steroidogenic factor 1 (Homo sapiens) (UniProt Q13285); assay: Selectivity interaction (Reporter gene assay) EUB0002358a NR5A1; parameters: recommended concentration 10 uM
# [8] = molecular target: Nuclear receptor subfamily 4immunitygroup A member 1 (Homo sapiens) (UniProt P22736); assay: Selectivity interaction (Reporter gene assay) EUB0002359a NR4A1; parameters: recommended concentration 1 uM
# [9] = molecular target: Steroidogenic factor 1 (Homo sapiens) (UniProt Q13285); assay: Selectivity interaction (Reporter gene assay) EUB0002359a NR5A1; parameters: recommended concentration 1 uM
# [10] = molecular target: Nuclear receptor subfamily 2 group E member 1 (Homo sapiens) (UniProt Q9Y466); assay: Selectivity interaction (Reporter gene assay) EUB0002359a NR2E1; parameters: recommended concentration 1 uM
# [11] = molecular target: T4, Alpha trans-inducing protein (Human alphaherpesvirus 1); assay: Selectivity interaction (Reporter gene assay) EUB0002359a UL48; parameters: recommended concentration 1 uM
# [12] = molecular target: T2, Retinoic acid receptor RXR-alpha (Homo sapiens); assay: Selectivity interaction (Reporter gene assay) EUB0002359a RXRA; parameters: recommended concentration 1 uM; conditions: reference bexarotene 1 uM, Selectivity number of off-targets 0.0, Selectivity number of targets 1.0, Source Knowledge inhouse
# [13] = molecular target: T3, Nuclear receptor subfamily 2 group C member 1 (Homo sapiens); assay: Selectivity interaction (Reporter gene assay) EUB0002359a NR2C1; parameters: recommended concentration 1 uM
# [14] = molecular target: T1, Hepatocyte nuclear factor 4-alpha (Homo sapiens); assay: Selectivity interaction (Reporter gene assay) EUB0002359a HNF4A; parameters: recommended concentration 1 uM
# [15] = molecular target: T2, Retinoic acid receptor RXR-alpha (Homo sapiens); assay: Selectivity interaction (Reporter gene assay) EUB0002355a RXRA; parameters: recommended concentration 3 uM; conditions: reference bexarotene 1 uM, Selectivity number of off-targets 0.0, Selectivity number of targets 1.0, Source Knowledge inhouse
# [16] = molecular target: T1, Hepatocyte nuclear factor 4-alpha (Homo sapiens); assay: Selectivity interaction (Reporter gene assay) EUB0002355a HNF4A; parameters: recommended concentration 3 uM
# [17] = molecular target: T4, Alpha trans-inducing protein (Human alphaherpesvirus 1); assay: Selectivity interaction (Reporter gene assay) EUB0002355a UL48; parameters: recommended concentration 3 uM
# [18] = molecular target: Steroidogenic factor 1 (Homo sapiens) (UniProt Q13285); assay: Selectivity interaction (Reporter gene assay) EUB0002355a NR5A1; parameters: recommended concentration 3 uM
# [19] = molecular target: Nuclear receptor subfamily 2 group E member 1 (Homo sapiens) (UniProt Q9Y466); assay: Selectivity interaction (Reporter gene assay) EUB0002355a NR2E1; parameters: recommended concentration 3 uM
# [20] = molecular target: Nuclear receptor subfamily 4immunitygroup A member 1 (Homo sapiens) (UniProt P22736); assay: Selectivity interaction (Reporter gene assay) EUB0002355a NR4A1; parameters: recommended concentration 3 uM
# [21] = molecular target: T3, Nuclear receptor subfamily 2 group C member 1 (Homo sapiens); assay: Selectivity interaction (Reporter gene assay) EUB0002355a NR2C1; parameters: recommended concentration 3 uM
# [22] = molecular target: Lysine-specific histone demethylase 2 (Homo sapiens, UniProt Q8NB78); assay: Selectivity interaction (Proteomics) EUB0000269cCl KDM1B/LSD2; parameters: recommended concentration 1 uM
# [23] = molecular target: Bromodomain-containing protein 4 (Homo sapiens, UniProt O60885); assay: Selectivity interaction (Proteomics) EUB0000269cCl BRD4; parameters: recommended concentration 1 uM
# Chain of Nuclear receptor subfamily 2 group E member 1 (Homo sapiens) (Q9Y466 whole entry): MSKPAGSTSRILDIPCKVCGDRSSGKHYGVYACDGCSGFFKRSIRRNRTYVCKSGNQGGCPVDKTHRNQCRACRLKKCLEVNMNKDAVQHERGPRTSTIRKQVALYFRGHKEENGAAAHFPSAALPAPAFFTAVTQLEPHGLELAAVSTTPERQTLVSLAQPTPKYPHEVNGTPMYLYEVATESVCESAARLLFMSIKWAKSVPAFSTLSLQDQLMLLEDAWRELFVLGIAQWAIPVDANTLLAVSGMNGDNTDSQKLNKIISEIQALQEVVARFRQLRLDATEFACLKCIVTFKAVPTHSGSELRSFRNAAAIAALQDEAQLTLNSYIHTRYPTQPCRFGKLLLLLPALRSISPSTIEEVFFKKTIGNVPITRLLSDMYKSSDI
# T4 sequence (A0A5J6DW59 as listed by the source): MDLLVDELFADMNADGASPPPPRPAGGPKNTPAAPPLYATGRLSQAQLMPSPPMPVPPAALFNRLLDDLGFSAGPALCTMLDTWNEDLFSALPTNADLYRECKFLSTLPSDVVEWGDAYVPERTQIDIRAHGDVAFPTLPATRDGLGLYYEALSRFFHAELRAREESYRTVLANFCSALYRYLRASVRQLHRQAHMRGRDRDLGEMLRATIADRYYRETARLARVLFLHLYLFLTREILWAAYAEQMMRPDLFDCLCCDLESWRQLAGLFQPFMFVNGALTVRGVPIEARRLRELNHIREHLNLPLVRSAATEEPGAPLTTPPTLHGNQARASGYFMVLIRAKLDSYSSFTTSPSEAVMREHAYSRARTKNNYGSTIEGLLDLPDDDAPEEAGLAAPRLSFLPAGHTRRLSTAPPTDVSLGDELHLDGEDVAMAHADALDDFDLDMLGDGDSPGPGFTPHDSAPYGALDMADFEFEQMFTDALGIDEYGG
# Chain of Steroidogenic factor 1 (Homo sapiens) (Q13285 whole entry): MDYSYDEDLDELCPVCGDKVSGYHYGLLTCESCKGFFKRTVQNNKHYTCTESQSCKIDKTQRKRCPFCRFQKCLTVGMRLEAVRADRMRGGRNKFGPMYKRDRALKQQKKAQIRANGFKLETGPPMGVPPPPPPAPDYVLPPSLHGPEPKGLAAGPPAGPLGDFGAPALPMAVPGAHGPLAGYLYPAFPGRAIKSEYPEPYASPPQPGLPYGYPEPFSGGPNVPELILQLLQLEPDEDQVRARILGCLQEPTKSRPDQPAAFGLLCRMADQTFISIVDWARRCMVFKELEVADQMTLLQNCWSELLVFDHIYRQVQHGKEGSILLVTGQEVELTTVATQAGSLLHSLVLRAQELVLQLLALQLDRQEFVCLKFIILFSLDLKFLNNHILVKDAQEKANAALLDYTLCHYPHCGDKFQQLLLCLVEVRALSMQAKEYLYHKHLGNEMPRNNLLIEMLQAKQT
# Chain of Nuclear receptor subfamily 4immunitygroup A member 1 (Homo sapiens) (P22736 whole entry): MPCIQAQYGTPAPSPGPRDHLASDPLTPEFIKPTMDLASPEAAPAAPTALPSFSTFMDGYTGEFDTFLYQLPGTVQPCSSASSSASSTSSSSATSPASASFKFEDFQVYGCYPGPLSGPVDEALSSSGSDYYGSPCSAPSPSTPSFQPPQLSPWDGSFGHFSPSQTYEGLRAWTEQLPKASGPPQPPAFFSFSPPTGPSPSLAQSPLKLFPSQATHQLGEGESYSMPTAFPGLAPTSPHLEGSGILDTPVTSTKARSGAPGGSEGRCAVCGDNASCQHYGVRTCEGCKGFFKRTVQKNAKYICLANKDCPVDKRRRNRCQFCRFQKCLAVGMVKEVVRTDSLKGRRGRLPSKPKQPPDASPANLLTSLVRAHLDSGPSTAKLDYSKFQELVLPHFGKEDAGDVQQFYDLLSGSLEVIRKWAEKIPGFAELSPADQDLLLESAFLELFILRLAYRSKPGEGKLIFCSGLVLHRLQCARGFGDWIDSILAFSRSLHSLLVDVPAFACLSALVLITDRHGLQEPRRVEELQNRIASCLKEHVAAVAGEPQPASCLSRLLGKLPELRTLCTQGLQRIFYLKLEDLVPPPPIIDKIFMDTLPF
# Chain of Lysine-specific histone demethylase 2 (Q8NB78 whole entry): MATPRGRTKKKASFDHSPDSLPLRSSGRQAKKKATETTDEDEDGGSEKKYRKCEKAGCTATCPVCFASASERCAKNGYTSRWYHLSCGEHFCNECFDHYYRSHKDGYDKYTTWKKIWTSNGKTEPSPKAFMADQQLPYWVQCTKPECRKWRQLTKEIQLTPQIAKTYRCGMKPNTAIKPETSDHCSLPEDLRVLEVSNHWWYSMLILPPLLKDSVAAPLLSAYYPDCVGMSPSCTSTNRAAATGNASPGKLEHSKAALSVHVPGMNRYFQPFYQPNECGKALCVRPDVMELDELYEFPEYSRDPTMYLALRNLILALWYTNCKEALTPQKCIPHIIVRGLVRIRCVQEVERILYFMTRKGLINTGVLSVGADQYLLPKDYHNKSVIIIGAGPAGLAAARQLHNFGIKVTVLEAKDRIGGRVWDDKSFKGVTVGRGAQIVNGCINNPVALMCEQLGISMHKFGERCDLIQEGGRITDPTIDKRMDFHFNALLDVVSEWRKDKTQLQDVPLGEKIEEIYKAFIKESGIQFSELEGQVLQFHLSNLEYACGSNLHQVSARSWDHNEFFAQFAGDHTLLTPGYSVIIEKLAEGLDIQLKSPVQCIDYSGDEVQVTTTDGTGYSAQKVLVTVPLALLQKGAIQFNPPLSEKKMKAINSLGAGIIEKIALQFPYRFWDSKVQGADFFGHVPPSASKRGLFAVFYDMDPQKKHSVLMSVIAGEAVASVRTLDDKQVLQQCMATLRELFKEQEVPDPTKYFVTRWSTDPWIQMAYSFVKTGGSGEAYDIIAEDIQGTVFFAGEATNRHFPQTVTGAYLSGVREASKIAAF
smiles,measurement,setting,value
O=c1[nH]c2ccccc2n1CCCN1CCN(C(c2ccccc2)c2ccccc2)CC1,Fold activation,[1],0.736
same,Fold activation,[2],0.661
same,Fold activation,[3],1.16
same,Relative activation,[4],0.76%
same,Fold activation,[5],0.803
same,P-value,[6],6e-08
same,Remaining activity,[7],1.07
CC(C)c1c(CN(C)C(C)Cc2ccccc2)n(C)n(-c2ccccc2)c1=O (stereo not drawn),Remaining activity,[8],0.96
same,Fold activation,[9],1.12
same,Remaining activity,[10],0.769
same,P-value,[11],0.00161
same,Relative activation,[12],0.69%
same,Fold activation,[13],1.13
same,Fold activation,[14],1.15
Cc1oc2ccccc2c1Cc1cc(I)c(OCC(=O)O)c(I)c1,Relative activation,[15],0.91%
same,Remaining activity,[16],0.739
same,P-value,[17],0.0128
same,Remaining activity,[18],0.684
same,Remaining activity,[19],0.732
same,Fold activation,[20],1.02
same,Fold activation,[21],1.28
Cc1cc(CN)cc(C)c1-c1ncn(C)c1-c1ccnc2cc(F)ccc12,pIC50,[22],< 4.00
same,pIC50,[23],< 3.00

# Reference: ChEMBL document CHEMBL5715260, “Selectivity Literature for EUbOPEN Chemogenomic Library” (2024)
